# Measurements as given in the NIST ThermoML archive (doi:10.1016/j.tca.2004.12.015).
# ± gives the expanded uncertainty stated by the source.
# Assay: Molar enthalpy of transition or fusion
# Conditions: Adiabatic calorimetry
compound,measurement,setting,value
N#CCCNc1ccccc1 [3-anilinopropanenitrile],Molar enthalpy of transition or fusion,Crystal 1,0.2342 ± 0.0012 kcal/mol
same,Molar enthalpy of transition or fusion,Crystal 2,4.6367 ± 0.0012 kcal/mol
